The target of one data set is σ1 receptor (S1R). The following applies: cited from earlier work.
For a further data set, the system named is neurons (NeuN). The experiment in a line: NeuN immunohistochemistry after intrastriatal AMPA. The class given is in vivo, rat. As for the experimental part:
Animals were maintained normothermic (body temperature: 37.0 ± 0.4 °C) during the surgery through the use of a heating blanket (Homeothermic Blanket Control Unit, Harvard Apparatus Limited®, Edenbridge, Kent, UK). Twenty-four hours later, the rats were anesthetized again as described above and scanned with a 3T cryogen-free MRS 3000 scanner with a quadrature, rat head coil (MR Solutions, Guildford, UK), [35] to assess oedema (i.e. lesion size and location) immediately before the PET scan. Parameters for the T2-weighted RARE sequence were: repetition time = 4800 ms, base echo time = 17 ms, effective echo time = 68 ms, number of echoes = 8, bandwidth = 20 kHz, number of samples = 256, number of views = 240, number of averages = 1 with 25 slices of 1.06 mm, giving a final voxel size of 0.136 × 0.136 × 1.06 mm.
Immunohistochemistry was also carried out in rats that received intrastriatal AMPA to visualise NeuN (neuronal marker). Animals were culled by isoflurane overdose confirmed by cervical dislocation. The brains were collected, snap frozen using isopentane on dry ice and stored at -80 °C. Coronal brain sections (20 µm thick) were taken using a cryostat (Leica CM3050s, Leica Biosystems Nussloch GmbH, Germany) and stored at -80 °C. Sections were allowed to defrost and dry at room temperature for 20min and then fixed with 4% paraformaldehyde for 10 min before being washed (6 × 5 min) in phosphate buffered saline (PBS) and incubated for 30 min in 2% normal donkey serum and 0.1% Triton X-100 in PBS to permeabilise and block non-specific binding. Primary antibody incubation was carried out overnight at 4 °C with rabbit anti-NeuN (Abcam, ab177487, 1:500). Following incubation in primary antibody, PBS washes were repeated (3 × 10min) and incubation with the secondary antibody (Alexa Fluor 594nm Donkey anti-rabbit IgG 1:500) was carried out. Images of the lesioned striatum were collected on an Olympus BX51 upright microscope using a 10×/0.30 UPlanFLN objectives and captured using a Retiga 6000 Color and R6 camera through QCapture Pro 7 and Ocular Software (QImaging Inc.). Specific band pass filter sets were used to prevent bleed through from one channel to the next. NeuN staining was quantified using ImageJ (1.52n) [51]-[53] using 5 snapshots for the caudate putamen, 3 snapshots for the globus pallidus and 2 snapshots for the substantia nigra for each side of the brain (ipsi- and contralateral). Both the total number of neurons averaged over the snapshots and the percentage of stained areas were measured.
For NeuN staining analysis and ^18F-IAM6067 autoradiography in the AMPA model, percentage stained area, cell counts and ^18F-IAM6067 were analysed using paired t-tests (ipsi- vs contralateral) for the caudate-putamen, globus pallidus and substantia nigra.

In data set [1] the target is S1R (Rattus norvegicus, UniProt Q9R0C9). The experiment in a line: PET pre-saturation (blocking) studies of ^18F-IAM6067 uptake. The following applies: blocker 1 mg/kg i.v. 20-30 min before scan. The class given is in vivo. As for the experimental part:
PET data were expressed as SUV.
As the experiments with CM398 were performed later, scans without and with pre-treatment with CM398 were performed in the same animals and therefore were analysed using 2 way ANOVA with repeated measures for ROI and treatment. ANOVA were followed by a Sidak's post-hoc test.

A further data set deals with sigma binding sites. The arrangement: method as in PMID 8221112. The following applies: hippocampus of AD patients vs controls, autoradiography; cited from earlier work.
Data set [2] concerns S1R. The following applies: baboon pre-treated with haloperidol 1 mg/kg i.v.; cited from earlier work.
Where [3] appears, read: globus pallidus, 24 h after intrastriatal AMPA 7.5 nmol, ipsi- vs contralateral.

The values that follow come from paper PMC7381740 (Theranostics, 2020).

pKi: −log10 of the molar value. Entries after “also recorded” stand apart in the source; their conditions may differ. Like-named read-outs stand apart in the source and are kept apart here.

Sequence of S1R (Rattus norvegicus, UniProt Q9R0C9) (Q9R0C9 whole entry): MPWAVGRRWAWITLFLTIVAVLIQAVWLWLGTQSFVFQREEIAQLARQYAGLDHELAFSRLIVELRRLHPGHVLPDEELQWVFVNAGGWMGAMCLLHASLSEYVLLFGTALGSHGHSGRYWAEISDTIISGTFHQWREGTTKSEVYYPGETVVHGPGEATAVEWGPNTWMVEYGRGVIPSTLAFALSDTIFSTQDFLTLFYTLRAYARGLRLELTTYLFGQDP

In general, pKi refers to −log10 of the Ki, conventionally taken in molar units. For the compound `FCC[C@H]1OC2(CCN(Cc3ccccc3)CC2)c2ccccc21` [(R)-^18F-fluspidine], the pKi at σ1 receptor (S1R) (enantiomers) was 9.28.

On to `Cc1onc(O)c1CC(N)C(=O)O` (stereo not drawn) [AMPA, α-amino-3-hydroxy-5-methyl-4-isoxazolepropionic acid], for which the “loss of neurons, NeuN % stained area” value in the data set on neurons (NeuN) (caudate-putamen, 24 h after intrastriatal AMPA 7.5 nmol, ipsi- vs contralateral) is given as -81 ± 3%; with neurons (NeuN) (setting [3]), -71 ± 8%. Also, the “loss of neurons, NeuN cell number” value with neurons (NeuN) (setting [3]) is -56 ± 17%. Also, in the data set on neurons (NeuN) (striatum), the “loss of neurons in the striatum (NeuN immunostaining)” value is given as 70-80%.

For `CN(C)CCN(C)CCc1ccc(Cl)c(Cl)c1` [BD1047], on S1R [1], the “decrease (blocking) of ^18F-IAM6067 uptake in all areas of the brain” value is 79-90% and the “effect of pre-saturation on ^18F-IAM6067 uptake vs baseline (in words)” value is “full blocking”. As for `COc1cc2c(cc1OC)CN(CCCCn1c(=O)n(C)c3ccccc31)CC2` [CM398], at S1R [1], the “effect of pre-saturation on ^18F-IAM6067 uptake vs baseline (in words)” value was “no significant blockade; also recorded: did not reveal any significant difference; also recorded: did not result in a significant reduction”. Same read-out and setting: the entry for `Cn1ccc2cc3c(cc21)CCN3C(=O)Nc1cccnc1` [SB206553] is “no significant blockade; also recorded: did not reveal any significant difference; also recorded: no significant difference”. As to `Cc1ccccc1NC(=N)Nc1ccccc1C` [^3H-DTG], in the data set on sigma binding sites, the decrease in binding is 26%. As to `COc1ccc(CCN2CCN(CCCc3ccccc3)CC2)cc1OC` [^11C-SA4503], at σ1 receptor (S1R), the pKi is 8.36.

Consider `O=c1sc2cc(CCCF)ccc2n1CCN1CCCCCC1` [^18F-FTC-146], for which the pKi at σ1 receptor (S1R) was 11.60.

Take `FCCC1OC2(CCN(Cc3ccccc3)CC2)c2ccccc21` (stereo not drawn) [^18F-fluspidine]: the pKi on σ1 receptor (S1R) was 9.23. For `O=C(CCCN1CCC(O)(c2ccc(Cl)cc2)CC1)c1ccc(F)cc1` [haloperidol], in the data set with S1R [2], the “displacement in specific receptor binding of ^18F-IAM6067 in all areas of the brain” value is on record as 80%. Turning to (S)-^18F-fluspidine, at σ1 receptor (S1R) (enantiomers), the pKi is 8.64.
